Tested on: HCI-012 (organoid from a breast cancer xenograft)
Experiment: CTG-3D luminescence at 96 h relative to day-0 seeding control (ratio to day 0); higher = more growth / less cytotoxicity; PDxO 3D drug screen, 96 h, CTG-3D normalised to day-0 seeding control.
Settings: 100 µM; days in culture: 143

Row | SMILES | CTG-3D luminescence at 96 h
1 | CC(C)(C(=O)NCC(F)(F)C(F)(F)F)C(=O)N[C@@H]1C(=O)Nc2ccccc2-c2ccccc21 | 1.37
2 | CCN(c1cc(C#CCN2CCOCC2)cc(C(=O)NCc2c(C)cc(C)[nH]c2=O)c1C)[C@H]1CC[C@H](N(C)CCOC)CC1 | 0.606
3 | NC(=O)Nc1cc(-c2cccc(F)c2)sc1C(=O)N[C@H]1CCCNC1 [AZD7762] | 0.000673
4 | O=C(/C=C/c1cccnc1)NCCCCC1CCN(C(=O)c2ccccc2)CC1 [FK866] | 0.175
5 | CCc1c2c(nc3ccc(O)cc13)-c1cc3c(c(=O)n1C2)COC(=O)[C@]3(O)CC [SN-38] | 0.0169
6 | CCN1CCN(Cc2ccc(Nc3ncc(F)c(-c4cc(F)c5nc(C)n(C(C)C)c5c4)n3)nc2)CC1 [abemaciclib] | 0.0151
7 | C=CCn1c(=O)c2cnc(Nc3ccc(N4CCN(C)CC4)cc3)nc2n1-c1cccc(C(C)(C)O)n1 [adavosertib] | 0.0167

Same assay, conditions: 100 µM; days in culture: 162

Row | SMILES | CTG-3D luminescence at 96 h
8 | CC(C)(C(=O)NCC(F)(F)C(F)(F)F)C(=O)N[C@@H]1C(=O)Nc2ccccc2-c2ccccc21 | 1.53
9 | CCN(c1cc(C#CCN2CCOCC2)cc(C(=O)NCc2c(C)cc(C)[nH]c2=O)c1C)[C@H]1CC[C@H](N(C)CCOC)CC1 | 1.69
10 | NC(=O)Nc1cc(-c2cccc(F)c2)sc1C(=O)N[C@H]1CCCNC1 [AZD7762] | -5.12e-05
11 | O=C(/C=C/c1cccnc1)NCCCCC1CCN(C(=O)c2ccccc2)CC1 [FK866] | 0.127
12 | CCc1c2c(nc3ccc(O)cc13)-c1cc3c(c(=O)n1C2)COC(=O)[C@]3(O)CC [SN-38] | 0.0164
13 | CCN1CCN(Cc2ccc(Nc3ncc(F)c(-c4cc(F)c5nc(C)n(C(C)C)c5c4)n3)nc2)CC1 [abemaciclib] | 0.0215
14 | C=CCn1c(=O)c2cnc(Nc3ccc(N4CCN(C)CC4)cc3)nc2n1-c1cccc(C(C)(C)O)n1 [adavosertib] | 0.0282

Same assay, conditions: 100 µM; days in culture: 201

Row | SMILES | CTG-3D luminescence at 96 h
15 | CC(C)(C(=O)NCC(F)(F)C(F)(F)F)C(=O)N[C@@H]1C(=O)Nc2ccccc2-c2ccccc21 | 2.23
16 | CCN(c1cc(C#CCN2CCOCC2)cc(C(=O)NCc2c(C)cc(C)[nH]c2=O)c1C)[C@H]1CC[C@H](N(C)CCOC)CC1 | 2.37
17 | NC(=O)Nc1cc(-c2cccc(F)c2)sc1C(=O)N[C@H]1CCCNC1 [AZD7762] | 0.00358
18 | O=C(/C=C/c1cccnc1)NCCCCC1CCN(C(=O)c2ccccc2)CC1 [FK866] | 0.115
19 | CCc1c2c(nc3ccc(O)cc13)-c1cc3c(c(=O)n1C2)COC(=O)[C@]3(O)CC [SN-38] | 0.014
20 | CCN1CCN(Cc2ccc(Nc3ncc(F)c(-c4cc(F)c5nc(C)n(C(C)C)c5c4)n3)nc2)CC1 [abemaciclib] | 0.0218
21 | C=CCn1c(=O)c2cnc(Nc3ccc(N4CCN(C)CC4)cc3)nc2n1-c1cccc(C(C)(C)O)n1 [adavosertib] | 0.0326

Same assay, conditions: 625 fM; days in culture: 143

Row | SMILES | CTG-3D luminescence at 96 h
22 | CC(C)(C(=O)NCC(F)(F)C(F)(F)F)C(=O)N[C@@H]1C(=O)Nc2ccccc2-c2ccccc21 | 1.72
23 | CCN(c1cc(C#CCN2CCOCC2)cc(C(=O)NCc2c(C)cc(C)[nH]c2=O)c1C)[C@H]1CC[C@H](N(C)CCOC)CC1 | 1.86
24 | NC(=O)Nc1cc(-c2cccc(F)c2)sc1C(=O)N[C@H]1CCCNC1 [AZD7762] | 1.69
25 | O=C(/C=C/c1cccnc1)NCCCCC1CCN(C(=O)c2ccccc2)CC1 [FK866] | 1.84
26 | CCc1c2c(nc3ccc(O)cc13)-c1cc3c(c(=O)n1C2)COC(=O)[C@]3(O)CC [SN-38] | 1.9
27 | CCN1CCN(Cc2ccc(Nc3ncc(F)c(-c4cc(F)c5nc(C)n(C(C)C)c5c4)n3)nc2)CC1 [abemaciclib] | 1.94
28 | C=CCn1c(=O)c2cnc(Nc3ccc(N4CCN(C)CC4)cc3)nc2n1-c1cccc(C(C)(C)O)n1 [adavosertib] | 2.06

Same assay, conditions: 625 fM; days in culture: 162

Row | SMILES | CTG-3D luminescence at 96 h
29 | CC(C)(C(=O)NCC(F)(F)C(F)(F)F)C(=O)N[C@@H]1C(=O)Nc2ccccc2-c2ccccc21 | 3.16
30 | CCN(c1cc(C#CCN2CCOCC2)cc(C(=O)NCc2c(C)cc(C)[nH]c2=O)c1C)[C@H]1CC[C@H](N(C)CCOC)CC1 | 2.39
31 | NC(=O)Nc1cc(-c2cccc(F)c2)sc1C(=O)N[C@H]1CCCNC1 [AZD7762] | 3.15
32 | O=C(/C=C/c1cccnc1)NCCCCC1CCN(C(=O)c2ccccc2)CC1 [FK866] | 2.72
33 | CCc1c2c(nc3ccc(O)cc13)-c1cc3c(c(=O)n1C2)COC(=O)[C@]3(O)CC [SN-38] | 2.73
34 | CCN1CCN(Cc2ccc(Nc3ncc(F)c(-c4cc(F)c5nc(C)n(C(C)C)c5c4)n3)nc2)CC1 [abemaciclib] | 3.16
35 | C=CCn1c(=O)c2cnc(Nc3ccc(N4CCN(C)CC4)cc3)nc2n1-c1cccc(C(C)(C)O)n1 [adavosertib] | 3.03

Same assay, conditions: 625 fM; days in culture: 201

Row | SMILES | CTG-3D luminescence at 96 h
36 | CC(C)(C(=O)NCC(F)(F)C(F)(F)F)C(=O)N[C@@H]1C(=O)Nc2ccccc2-c2ccccc21 | 1.61
37 | CCN(c1cc(C#CCN2CCOCC2)cc(C(=O)NCc2c(C)cc(C)[nH]c2=O)c1C)[C@H]1CC[C@H](N(C)CCOC)CC1 | 1.64
38 | NC(=O)Nc1cc(-c2cccc(F)c2)sc1C(=O)N[C@H]1CCCNC1 [AZD7762] | 1.9
39 | O=C(/C=C/c1cccnc1)NCCCCC1CCN(C(=O)c2ccccc2)CC1 [FK866] | 1.67
40 | CCc1c2c(nc3ccc(O)cc13)-c1cc3c(c(=O)n1C2)COC(=O)[C@]3(O)CC [SN-38] | 1.61
41 | CCN1CCN(Cc2ccc(Nc3ncc(F)c(-c4cc(F)c5nc(C)n(C(C)C)c5c4)n3)nc2)CC1 [abemaciclib] | 1.65
42 | C=CCn1c(=O)c2cnc(Nc3ccc(N4CCN(C)CC4)cc3)nc2n1-c1cccc(C(C)(C)O)n1 [adavosertib] | 1.71

Tested on: HCI-024 (organoid from a breast cancer xenograft)
Experiment: as above
Settings: 12.5 pM; days in culture: 105

Row | SMILES | CTG-3D luminescence at 96 h
43 | CC(C)(C(=O)NCC(F)(F)C(F)(F)F)C(=O)N[C@@H]1C(=O)Nc2ccccc2-c2ccccc21 | 1.79
44 | CCN(c1cc(C#CCN2CCOCC2)cc(C(=O)NCc2c(C)cc(C)[nH]c2=O)c1C)[C@H]1CC[C@H](N(C)CCOC)CC1 | 1.44
45 | NC(=O)Nc1cc(-c2cccc(F)c2)sc1C(=O)N[C@H]1CCCNC1 [AZD7762] | 1.28
46 | O=C(/C=C/c1cccnc1)NCCCCC1CCN(C(=O)c2ccccc2)CC1 [FK866] | 1.87
47 | CCc1c2c(nc3ccc(O)cc13)-c1cc3c(c(=O)n1C2)COC(=O)[C@]3(O)CC [SN-38] | 1.67
48 | CCN1CCN(Cc2ccc(Nc3ncc(F)c(-c4cc(F)c5nc(C)n(C(C)C)c5c4)n3)nc2)CC1 [abemaciclib] | 1.51
49 | C=CCn1c(=O)c2cnc(Nc3ccc(N4CCN(C)CC4)cc3)nc2n1-c1cccc(C(C)(C)O)n1 [adavosertib] | 1.61

Same assay, conditions: 12.5 pM; days in culture: 122

Row | SMILES | CTG-3D luminescence at 96 h
50 | CC(C)(C(=O)NCC(F)(F)C(F)(F)F)C(=O)N[C@@H]1C(=O)Nc2ccccc2-c2ccccc21 | 2.28
51 | CCN(c1cc(C#CCN2CCOCC2)cc(C(=O)NCc2c(C)cc(C)[nH]c2=O)c1C)[C@H]1CC[C@H](N(C)CCOC)CC1 | 1.71
52 | NC(=O)Nc1cc(-c2cccc(F)c2)sc1C(=O)N[C@H]1CCCNC1 [AZD7762] | 1.65
53 | O=C(/C=C/c1cccnc1)NCCCCC1CCN(C(=O)c2ccccc2)CC1 [FK866] | 2.43
54 | CCc1c2c(nc3ccc(O)cc13)-c1cc3c(c(=O)n1C2)COC(=O)[C@]3(O)CC [SN-38] | 2.16
55 | CCN1CCN(Cc2ccc(Nc3ncc(F)c(-c4cc(F)c5nc(C)n(C(C)C)c5c4)n3)nc2)CC1 [abemaciclib] | 2.26
56 | C=CCn1c(=O)c2cnc(Nc3ccc(N4CCN(C)CC4)cc3)nc2n1-c1cccc(C(C)(C)O)n1 [adavosertib] | 1.86

Same assay, conditions: 12.5 pM; days in culture: 163

Row | SMILES | CTG-3D luminescence at 96 h
57 | CC(C)(C(=O)NCC(F)(F)C(F)(F)F)C(=O)N[C@@H]1C(=O)Nc2ccccc2-c2ccccc21 | 2.14
58 | CCN(c1cc(C#CCN2CCOCC2)cc(C(=O)NCc2c(C)cc(C)[nH]c2=O)c1C)[C@H]1CC[C@H](N(C)CCOC)CC1 | 1.65
59 | NC(=O)Nc1cc(-c2cccc(F)c2)sc1C(=O)N[C@H]1CCCNC1 [AZD7762] | 1.95
60 | O=C(/C=C/c1cccnc1)NCCCCC1CCN(C(=O)c2ccccc2)CC1 [FK866] | 1.91
61 | CCc1c2c(nc3ccc(O)cc13)-c1cc3c(c(=O)n1C2)COC(=O)[C@]3(O)CC [SN-38] | 1.84
62 | CCN1CCN(Cc2ccc(Nc3ncc(F)c(-c4cc(F)c5nc(C)n(C(C)C)c5c4)n3)nc2)CC1 [abemaciclib] | 1.45
63 | C=CCn1c(=O)c2cnc(Nc3ccc(N4CCN(C)CC4)cc3)nc2n1-c1cccc(C(C)(C)O)n1 [adavosertib] | 2.11
